In PubChem BioAssay (NCI):
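A five-concentration, 48-hour dose response in 96-well plates underlies each endpoint, interpolated linearly between surrounding concentrations. GI50 marks 50% less growth. At the TGI there is no net growth.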

How the values were obtained:
Assay in all cases: NCI tumour cell line growth inhibition, 48 h
SR leukemia = system: SR leukemia
TK-10 renal = system: TK-10 renal
HS 578T breast = system: HS 578T breast
MCF7 breast = system: MCF7 breast
DU-145 prostate = system: DU-145 prostate
BT-549 breast = system: BT-549 breast
HCC-2998 colon = system: HCC-2998 colon
786-0 renal = system: 786-0 renal
DLD-1 colon = system: DLD-1 colon
SNB-78 CNS = system: SNB-78 CNS
M19-MEL melanoma = system: M19-MEL melanoma
KM20L2 colon = system: KM20L2 colon
P388 leukemia = system: P388 leukemia

With Cc1ccc(N(CC(=O)Nc2ccc(S(=O)(=O)N3CCC(N4CCCC4)CC3)cc2)S(=O)(=O)c2ccc(Cl)cc2)cc1 the GI50 (SR leukemia) was 0.3 µM, the TGI (SR leukemia) was 0.856 µM and the GI50 (TK-10 renal) was 1.68 µM. It also gave a TGI (TK-10 renal) of 3.36 µM, a GI50 (HS 578T breast) of 1.76 µM and a TGI (HS 578T breast) of 4.39 µM. The GI50 (MCF7 breast) was 1.6 µM, the TGI (MCF7 breast) was 3.6 µM and the GI50 (DU-145 prostate) was 1.76 µM. For the same compound, the TGI (DU-145 prostate) was 3.4 µM, the GI50 (BT-549 breast) was 1.68 µM and the TGI (BT-549 breast) was 3.31 µM.
For O=C1Nc2ccc(Cl)cc2/C1=C\c1c(Cl)nc2sccn12, the TGI (HCC-2998 colon) was greater than 100 µM, the TGI (SR leukemia) was greater than 100 µM and the TGI (TK-10 renal) was greater than 100 µM. It also gave a TGI (DU-145 prostate) greater than 100 µM and a TGI (BT-549 breast) greater than 100 µM.
Work on C[N+]1(CCCl)CC[N+](C)(CCCl)CC1 (stereo not given) yielded a TGI (TK-10 renal) greater than 100 µM, a TGI (HS 578T breast) greater than 100 µM and a TGI (MCF7 breast) greater than 100 µM. It also gave a TGI (786-0 renal) greater than 100 µM, a TGI (DU-145 prostate) greater than 100 µM and a TGI (BT-549 breast) greater than 100 µM.
Compound CCOC(=O)CC1(c2cccc3ccccc23)OC(=O)c2ccccc21 (stereo not given) has a TGI (DLD-1 colon) greater than 100 µM, a TGI (HCC-2998 colon) greater than 100 µM and a TGI (TK-10 renal) greater than 100 µM. The TGI (SNB-78 CNS) was greater than 100 µM, the TGI (M19-MEL melanoma) was greater than 100 µM and the TGI (KM20L2 colon) was greater than 100 µM.
With O=C(Nc1ccc(-n2ccc3c(NC(=O)c4ccccc4)ncnc32)cc1)Nc1cccc(Cl)c1Cl the GI50 (HCC-2998 colon) was 2.99 µM, the TGI (HCC-2998 colon) was 19.9 µM and the GI50 (SR leukemia) was 0.659 µM. For the same compound, the TGI (SR leukemia) was 2.92 µM, the GI50 (TK-10 renal) was 1.01 µM and the TGI (TK-10 renal) was 2.34 µM. For the same compound, the GI50 (HS 578T breast) was 0.856 µM, the TGI (HS 578T breast) was 2.6 µM and the GI50 (MCF7 breast) was 1.12 µM. The TGI (MCF7 breast) was 5.81 µM, the GI50 (DU-145 prostate) was 1.47 µM and the TGI (DU-145 prostate) was 3.85 µM.
In the case of O=C(O)CC1NCc2cc3ccccc3nc21 (stereo not given), the TGI (HCC-2998 colon) is reported as greater than 100 µM, the TGI (SR leukemia) is reported as greater than 100 µM and the TGI (TK-10 renal) is reported as greater than 100 µM. It also gave a TGI (HS 578T breast) greater than 100 µM, a TGI (MCF7 breast) greater than 100 µM and a TGI (786-0 renal) greater than 100 µM. The TGI (DU-145 prostate) was greater than 100 µM and the TGI (BT-549 breast) was greater than 100 µM.
For O=C(O)/C(Cc1ccc([N+](=O)[O-])cc1)=N\O, the TGI (HCC-2998 colon) was greater than 100 µM, the TGI (TK-10 renal) was greater than 100 µM and the TGI (HS 578T breast) was greater than 100 µM. The TGI (MCF7 breast) was greater than 100 µM, the TGI (786-0 renal) was greater than 100 µM and the TGI (DU-145 prostate) was greater than 100 µM. It also gave a TGI (BT-549 breast) greater than 100 µM.
For CC(=O)NC1=C[C@@H]([C@H]2COC(C)(C)O2)OC1=O, the TGI (DLD-1 colon) was greater than 100 µM, the TGI (HCC-2998 colon) was greater than 100 µM and the TGI (SNB-78 CNS) was greater than 100 µM. It also gave a TGI (P388 leukemia) greater than 100 µM, a TGI (M19-MEL melanoma) greater than 100 µM and a TGI (MCF7 breast) greater than 100 µM. It also gave a TGI (KM20L2 colon) greater than 100 µM.
CC(C)C(N)=O gave a TGI (DLD-1 colon) greater than 5000 µM, a TGI (SR leukemia) greater than 5000 µM and a TGI (TK-10 renal) greater than 5000 µM. For the same compound, the TGI (SNB-78 CNS) was greater than 5000 µM, the TGI (M19-MEL melanoma) was greater than 5000 µM and the TGI (786-0 renal) was greater than 5000 µM.
Compound C=C(OC1C(C)=C2C(C1OC(=O)CCCCCCC)C(C)(OC(C)=O)CC(OC(=O)CCC)C1(O)C2OC(=O)C1(C)O)/C(C)=C/C (stereo not given) has a TGI (DLD-1 colon) of 16.4 µM, a GI50 (HCC-2998 colon) of less than 0.0001 µM and a TGI (HCC-2998 colon) of 0.778 µM. For the same compound, the TGI (SNB-78 CNS) was 19.1 µM, the TGI (P388 leukemia) was 0.993 µM and the TGI (M19-MEL melanoma) was 1.29 µM. It also gave a TGI (MCF7 breast) of 0.191 µM and a TGI (KM20L2 colon) of 1.23 µM.
CCCCCCCCCCCCOCCCOP(=O)([O-])OCC[N+](C)(C)C was tested, and the TGI (DLD-1 colon) was greater than 95.8 µM, the TGI (HCC-2998 colon) was 24.9 µM and the TGI (SR leukemia) was greater than 73.5 µM. The TGI (TK-10 renal) was 14.9 µM, the TGI (SNB-78 CNS) was greater than 89.5 µM and the TGI (HS 578T breast) was 57.7 µM. For the same compound, the TGI (P388 leukemia) was 97.7 µM, the TGI (M19-MEL melanoma) was greater than 100 µM and the TGI (MCF7 breast) was greater than 100 µM. The TGI (786-0 renal) was 37.4 µM, the TGI (DU-145 prostate) was greater than 75.1 µM and the TGI (BT-549 breast) was 33.1 µM. It also gave a TGI (KM20L2 colon) greater than 100 µM.
COC(=O)c1cnc(Cl)cn1 gave a TGI (SR leukemia) greater than 100 µM, a TGI (TK-10 renal) greater than 100 µM and a TGI (HS 578T breast) greater than 100 µM. It also gave a TGI (MCF7 breast) of 95.5 µM, a TGI (786-0 renal) greater than 100 µM and a TGI (DU-145 prostate) greater than 100 µM. The TGI (BT-549 breast) was greater than 100 µM.
Compound Nc1nc(N)c2cc(NCc3ccc(Cl)c(Cl)c3)ccc2n1 has a GI50 (HCC-2998 colon) of 1.16 µM, a TGI (HCC-2998 colon) of 2.51 µM and a GI50 (TK-10 renal) of 1.59 µM. It also gave a TGI (TK-10 renal) of 2.93 µM, a GI50 (MCF7 breast) of 1.36 µM and a TGI (MCF7 breast) of 2.75 µM. For the same compound, the GI50 (DU-145 prostate) was 1.65 µM and the TGI (DU-145 prostate) was 3.01 µM.
